Experimental data published in patent US20260248894A1, “COMBINATION THERAPY FOR PRETERM INFANTS” (Oak Hill Bio Ltd, priority 2022, published 2026).
Where a name gives a salt, the structure may show the parent alone. Read-outs that look alike come from different tables or passages of the source.

Legend:
[1] = biological target: T1, rhIGF-1/rhIGFBP-3 drug product (Homo sapiens, UniProt P05019+P17936, DEL119-195); experiment: Small-molecule chemical compatibility: small-molecule content post mixing by RP-HPLC-UV or ion chromatography; type: physicochemical; details: post mixing with rhIGF-1/rhIGFBP-3 drug product, last specified time point(s)
T1 construct: purchased Takeda, Lexington, MA, USA
T1 sequence (P05019 49-118 limits assumed, stated change not applied): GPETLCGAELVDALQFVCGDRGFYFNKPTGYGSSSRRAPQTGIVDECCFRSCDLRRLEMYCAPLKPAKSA
T1 sequence (P17936 28-291, stated change not applied): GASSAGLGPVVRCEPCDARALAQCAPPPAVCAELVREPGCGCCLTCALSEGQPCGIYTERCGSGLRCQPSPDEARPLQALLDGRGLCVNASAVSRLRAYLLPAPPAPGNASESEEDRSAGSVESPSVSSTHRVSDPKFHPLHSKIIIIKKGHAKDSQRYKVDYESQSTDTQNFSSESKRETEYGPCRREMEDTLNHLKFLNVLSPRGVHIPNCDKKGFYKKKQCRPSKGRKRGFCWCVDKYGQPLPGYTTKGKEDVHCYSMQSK

[2] = biological target: T1, rhIGF-1/rhIGFBP-3 drug product; experiment: In vitro physical compatibility of test medications mixed with rhIGF-1/rhIGFBP-3 (visual observation, OD320, pH, osmolality); type: physicochemical; details: for visual observation (and OD320) upon mixing: mixture with rhIGF-1/rhIGFBP-3 drug product
[3] = test system: insulin; details: cited from earlier work
[4] = test system: insulin; details: no compatibility data available with insulin
[5] = biological target: T1, rhIGF-1/rhIGFBP-3 drug product; experiment: Protein-specific (mass spectrometry-based) analyses of rhIGF-1/rhIGFBP-3 chemical compatibility and the final compatibility decision; type: physicochemical
[6] = mixed with rhIGF-1/rhIGFBP-3 drug product at representative clinical doses, room temperature

Row | Compound | Chemical compatibility for small-molecule content (RP-HPLC) [1] | physical compatibility with rhIGF-1/rhIGFBP-3 ([2]; conditions and doses tested) | Physical compatibility [2, 6] | further results
1 | CC1(C)S[C@@H]2[C@H](NC(=O)[C@H](N)c3ccccc3)C(=O)N2[C@H]1C(=O)O [Ampicillin sodium] | Yes (Chemical incompatibility was considered to be a loss of the small-molecule content of ~10% or more over the defined testing period) | considered incompatible | No | pH change post mixing (in words) ([2]; mixture with rhIGF-1/rhIGFBP-3): Observed change in pH of rhIGF-1/rhIGFBP-3
2 | NCC[C@H](O)C(=O)N[C@@H]1C[C@H](N)[C@@H](O[C@H]2O[C@H](CN)[C@@H](O)[C@H](O)[C@H]2O)[C@H](O)[C@H]1O[C@H]1O[C@H](CO)[C@@H](O)[C@H](N)[C@H]1O.O=S(=O)(O)O.O=S(=O)(O)O [Amikacin sulfate] | Yes (Chemical incompatibility was considered to be a loss of the small-molecule content of ~10% or more over the defined testing period) | considered incompatible | No | decrease in pH of mixtures compared with controls ([2]; mixture with rhIGF-1/rhIGFBP-3): Mixtures demonstrated a decrease in pH of ~0.6 units
3 | Cc1ncc2n1-c1ccc(Cl)cc1C(c1ccccc1F)=NC2 [Midazolam, Midazolam hydrochloride] |  |  |  | compatibility with insulin [3]: established; Physical compatibility [2]: Yes; physical compatibility with rhIGF-1/rhIGFBP-3 [2]: physical compatibility was established
4 | Gentamicin | Yes (Chemical incompatibility was considered to be a loss of the small-molecule content of ~10% or more over the defined testing period) |  |  | 
5 | rhIGF-1/rhIGFBP-3 drug product: recombinant human protein complex of insulin-like growth factor-1 (IGF-1) and insulin-like growth factor binding protein-3 (IGFBP-3) |  |  |  | pH value of the unmixed product ([2]; not in the mixture): 5.5
6 | Insulin | Yes (Chemical incompatibility was considered to be a loss of the small-molecule content of ~10% or more over the defined testing period) | physical compatibility was established | Yes | 
7 | CC1(C)S[C@@H]2[C@H](NC(=O)Cc3ccccc3)C(=O)N2[C@H]1C(=O)[O-].[K+] [Penicillin G, Penicillin G potassium] | Yes (Chemical incompatibility was considered to be a loss of the small-molecule content of ~10% or more over the defined testing period) | considered incompatible | No | pH shift ([2]; highest penicillin G dose of 125,000 Units/kg/30 min): pH shift (up to 1.3 pH units for the highest
8 | Cn1c(=O)c2c(ncn2C)n(C)c1=O.O=C(O)CC(O)(CC(=O)O)C(=O)O [Caffeine citrate] |  |  |  | Physical compatibility [2]: Yes^a; pH difference of mixed samples compared with the control [2]: demonstrated ~1.0 unit difference compared; physical compatibility with rhIGF-1/rhIGFBP-3 [2]: physical compatibility was established
9 | OC(Cn1cncn1)(Cn1cncn1)c1ccc(F)cc1F [Fluconazole] | Yes (Chemical incompatibility was considered to be a loss of the small-molecule content of ~10% or more over the defined testing period) | physical compatibility was established | Yes | expected reaction on the basis of theoretical evaluation and the solution pH [4]: a reaction is not expected
10 | CC(CCc1ccc(O)cc1)NCCc1ccc(O)c(O)c1 (stereo not shown) [Dobutamine hydrochloride] | Yes (Chemical incompatibility was considered to be a loss of the small-molecule content of ~10% or more over the defined testing period) | considered incompatible | No | visual observation (and OD320) upon mixing [2]: physical compatibility (no precipitation, no; final compatibility decision informed by protein-specific studies / sodium (meta)bisulfite in the formulation [5]: medication is considered incompatible
11 | CN[C@H](CC(C)C)C(=O)N[C@H]1C(=O)N[C@@H](CC(N)=O)C(=O)N[C@H]2C(=O)N[C@H]3C(=O)N[C@H](C(=O)N[C@H](C(=O)O)c4cc(O)cc(O)c4-c4cc3ccc4O)[C@H](O)c3ccc(c(Cl)c3)Oc3cc2cc(c3O[C@@H]2O[C@H](CO)[C@@H](O)[C@H](O)[C@H]2O[C@H]2C[C@](C)(N)[C@H](O)[C@H](C)O2)Oc2ccc(cc2Cl)[C@H]1O [Vancomycin hydrochloride] |  |  |  | compatibility with insulin [3]: established; Physical compatibility [2]: Yes
12 | NS(=O)(=O)c1cc(C(=O)O)c(NCc2ccco2)cc1Cl [Furosemide] | Yes (Chemical incompatibility was considered to be a loss of the small-molecule content of ~10% or more over the defined testing period) | considered incompatible | No | time after mixing to cloudiness / turbidity ([2]; mixture with rhIGF-1/rhIGFBP-3): ≤ 30 min; visual observation (and OD320) upon mixing [2]: Cloudiness observed
13 | NC[C@H](O)c1ccc(O)c(O)c1 [Norepinephrine bitartrate] |  |  |  | pH change post mixing (in words) [2]: Only the lowest dose was physically; physical compatibility with rhIGF-1/rhIGFBP-3 [2]: considered incompatible
14 | C[C@@H](O)[C@H]1C(=O)N2C(C(=O)O)=C(S[C@@H]3CN[C@H](C(=O)N(C)C)C3)[C@H](C)[C@H]12 [Meropenem] | Yes (Chemical incompatibility was considered to be a loss of the small-molecule content of ~10% or more over the defined testing period) | considered incompatible | No | pH change post mixing ([2]; mixture with rhIGF-1/rhIGFBP-3): Observed pH change of ~2.4 post mixing,
15 | Cl.NCCc1ccc(O)c(O)c1 [Dopamine hydrochloride] |  |  |  | Physical compatibility [2]: No; pH change post mixing (in words) [2]: A dopamine dose-dependent physical change; physical compatibility with rhIGF-1/rhIGFBP-3 [2]: considered incompatible; effect on rhIGF-1/rhIGFBP-3 drug product in protein-specific analyses [5]: data demonstrated an impact on the rhIGF-
